Concentration data for 5 molecules are collected here from ChEMBL document CHEMBL1137963, “New oligomers of conduritol-F and muco-inositol. Synthesis and biological evaluation as glycosidase inhibitors” (Bioorg Med Chem Lett, 2004).

Structures are written as SMILES. Activity calls are given as the source filed them. The rule behind the calls is not given here.

Experiment [1] has as its target Maltase-glucoamylase (Homo sapiens) (UniProt O43451). Briefly: Concentration required to inhibit alpha-glucosidase.
The target of experiment [2] is T1, Beta-mannosidase (Rattus norvegicus) (UniProt Q4FZV0).
T1 sequence (whole entry): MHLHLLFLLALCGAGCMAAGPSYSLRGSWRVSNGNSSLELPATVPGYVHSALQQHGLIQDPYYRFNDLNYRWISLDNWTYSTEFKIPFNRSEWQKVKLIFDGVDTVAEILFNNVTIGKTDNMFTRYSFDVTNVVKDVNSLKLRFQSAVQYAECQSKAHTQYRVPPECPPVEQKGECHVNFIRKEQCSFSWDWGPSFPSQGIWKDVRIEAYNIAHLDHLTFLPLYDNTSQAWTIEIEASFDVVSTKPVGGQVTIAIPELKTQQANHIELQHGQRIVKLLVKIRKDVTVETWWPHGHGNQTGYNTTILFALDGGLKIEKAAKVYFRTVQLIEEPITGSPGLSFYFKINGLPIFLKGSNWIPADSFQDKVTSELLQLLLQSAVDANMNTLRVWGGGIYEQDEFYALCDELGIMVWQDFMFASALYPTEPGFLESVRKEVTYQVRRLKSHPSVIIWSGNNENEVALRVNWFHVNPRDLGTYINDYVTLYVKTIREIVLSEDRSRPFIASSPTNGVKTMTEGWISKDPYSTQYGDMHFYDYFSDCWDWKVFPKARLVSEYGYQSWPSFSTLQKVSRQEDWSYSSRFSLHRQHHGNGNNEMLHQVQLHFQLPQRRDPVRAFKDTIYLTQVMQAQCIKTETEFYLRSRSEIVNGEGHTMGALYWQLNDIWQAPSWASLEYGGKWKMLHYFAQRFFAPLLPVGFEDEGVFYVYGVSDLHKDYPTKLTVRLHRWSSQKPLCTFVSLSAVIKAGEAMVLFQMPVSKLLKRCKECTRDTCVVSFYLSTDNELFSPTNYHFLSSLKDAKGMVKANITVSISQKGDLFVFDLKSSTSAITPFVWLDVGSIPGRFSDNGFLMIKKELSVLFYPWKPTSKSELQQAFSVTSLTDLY
The experiment is described as follows: Concentration required to inhibit beta-mannosidase; IA means inactive.

For experiment [3], the target named is T2, Beta-galactosidase (Homo sapiens) (UniProt P16278).
T2 sequence (whole entry): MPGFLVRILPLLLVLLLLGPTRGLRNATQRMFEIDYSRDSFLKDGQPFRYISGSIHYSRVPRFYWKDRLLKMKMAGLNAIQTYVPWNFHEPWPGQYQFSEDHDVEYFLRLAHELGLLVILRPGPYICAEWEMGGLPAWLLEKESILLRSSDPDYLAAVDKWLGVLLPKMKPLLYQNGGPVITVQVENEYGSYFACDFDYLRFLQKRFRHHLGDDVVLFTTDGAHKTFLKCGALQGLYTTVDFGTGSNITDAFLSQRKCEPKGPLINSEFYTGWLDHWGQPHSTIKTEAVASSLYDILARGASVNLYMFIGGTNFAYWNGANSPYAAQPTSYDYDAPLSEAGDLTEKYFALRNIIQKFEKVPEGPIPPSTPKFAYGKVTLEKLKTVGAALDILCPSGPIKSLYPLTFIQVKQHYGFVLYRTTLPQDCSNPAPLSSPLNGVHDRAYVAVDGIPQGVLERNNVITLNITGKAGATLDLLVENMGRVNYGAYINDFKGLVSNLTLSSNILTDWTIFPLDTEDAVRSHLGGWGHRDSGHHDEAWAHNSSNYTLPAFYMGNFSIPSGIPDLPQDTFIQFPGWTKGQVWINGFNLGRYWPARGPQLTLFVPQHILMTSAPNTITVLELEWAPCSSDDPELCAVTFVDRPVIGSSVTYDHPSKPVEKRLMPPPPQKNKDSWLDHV
The experiment is described as follows: Concentration required to inhibit beta-galactosidase.

Experiment [4] can be described thus: Concentration required to inhibit alpha-mannosidase; IA means inactive.
For experiment [5], the target named is T3, Alpha-galactosidase A (Homo sapiens) (UniProt P06280).
T3 sequence (whole entry): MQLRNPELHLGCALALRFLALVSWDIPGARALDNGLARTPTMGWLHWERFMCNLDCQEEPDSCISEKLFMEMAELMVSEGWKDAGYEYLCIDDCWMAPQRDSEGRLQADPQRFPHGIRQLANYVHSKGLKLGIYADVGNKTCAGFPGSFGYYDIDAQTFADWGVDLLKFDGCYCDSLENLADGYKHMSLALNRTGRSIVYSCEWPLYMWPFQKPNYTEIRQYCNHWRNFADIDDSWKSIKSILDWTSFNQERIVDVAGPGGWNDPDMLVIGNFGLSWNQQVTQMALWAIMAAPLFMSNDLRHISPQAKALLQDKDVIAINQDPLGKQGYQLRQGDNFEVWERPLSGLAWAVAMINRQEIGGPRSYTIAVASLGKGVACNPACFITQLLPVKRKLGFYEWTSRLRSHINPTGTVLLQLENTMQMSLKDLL
Briefly: Concentration required to inhibit alpha-galactocosidase.

The target in experiment [6] is Beta-glucosidase A (Caldicellulosiruptor saccharolyticus) (UniProt P10482). The experiment is described as follows: Concentration required to inhibit beta-glucosidase; IA means inactive.
Sequence of Beta-glucosidase A (Caldicellulosiruptor saccharolyticus) (P10482 whole entry): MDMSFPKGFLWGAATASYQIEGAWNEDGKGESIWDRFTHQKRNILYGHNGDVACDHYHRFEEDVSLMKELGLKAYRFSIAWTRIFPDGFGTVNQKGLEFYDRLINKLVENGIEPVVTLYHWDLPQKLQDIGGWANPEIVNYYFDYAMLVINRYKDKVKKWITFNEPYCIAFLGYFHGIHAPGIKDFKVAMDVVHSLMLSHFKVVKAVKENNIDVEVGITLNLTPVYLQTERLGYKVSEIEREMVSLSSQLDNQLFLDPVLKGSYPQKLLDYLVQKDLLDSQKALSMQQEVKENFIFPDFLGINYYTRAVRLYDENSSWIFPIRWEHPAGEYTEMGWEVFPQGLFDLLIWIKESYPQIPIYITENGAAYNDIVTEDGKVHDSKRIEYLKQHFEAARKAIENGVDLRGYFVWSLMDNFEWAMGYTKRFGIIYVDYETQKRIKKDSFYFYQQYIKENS
Experiment [7] addresses T3, Alpha-galactosidase A (Homo sapiens). Briefly: Concentration required to inhibit alpha-galactocosidase; IA means inactive.
The target of experiment [8] is Maltase-glucoamylase (Homo sapiens) (UniProt O43451). The experiment is described as follows: Concentration required to inhibit alpha-glucosidase; IA means inactive.
Sequence of Maltase-glucoamylase (Homo sapiens) (O43451 whole entry, looked up): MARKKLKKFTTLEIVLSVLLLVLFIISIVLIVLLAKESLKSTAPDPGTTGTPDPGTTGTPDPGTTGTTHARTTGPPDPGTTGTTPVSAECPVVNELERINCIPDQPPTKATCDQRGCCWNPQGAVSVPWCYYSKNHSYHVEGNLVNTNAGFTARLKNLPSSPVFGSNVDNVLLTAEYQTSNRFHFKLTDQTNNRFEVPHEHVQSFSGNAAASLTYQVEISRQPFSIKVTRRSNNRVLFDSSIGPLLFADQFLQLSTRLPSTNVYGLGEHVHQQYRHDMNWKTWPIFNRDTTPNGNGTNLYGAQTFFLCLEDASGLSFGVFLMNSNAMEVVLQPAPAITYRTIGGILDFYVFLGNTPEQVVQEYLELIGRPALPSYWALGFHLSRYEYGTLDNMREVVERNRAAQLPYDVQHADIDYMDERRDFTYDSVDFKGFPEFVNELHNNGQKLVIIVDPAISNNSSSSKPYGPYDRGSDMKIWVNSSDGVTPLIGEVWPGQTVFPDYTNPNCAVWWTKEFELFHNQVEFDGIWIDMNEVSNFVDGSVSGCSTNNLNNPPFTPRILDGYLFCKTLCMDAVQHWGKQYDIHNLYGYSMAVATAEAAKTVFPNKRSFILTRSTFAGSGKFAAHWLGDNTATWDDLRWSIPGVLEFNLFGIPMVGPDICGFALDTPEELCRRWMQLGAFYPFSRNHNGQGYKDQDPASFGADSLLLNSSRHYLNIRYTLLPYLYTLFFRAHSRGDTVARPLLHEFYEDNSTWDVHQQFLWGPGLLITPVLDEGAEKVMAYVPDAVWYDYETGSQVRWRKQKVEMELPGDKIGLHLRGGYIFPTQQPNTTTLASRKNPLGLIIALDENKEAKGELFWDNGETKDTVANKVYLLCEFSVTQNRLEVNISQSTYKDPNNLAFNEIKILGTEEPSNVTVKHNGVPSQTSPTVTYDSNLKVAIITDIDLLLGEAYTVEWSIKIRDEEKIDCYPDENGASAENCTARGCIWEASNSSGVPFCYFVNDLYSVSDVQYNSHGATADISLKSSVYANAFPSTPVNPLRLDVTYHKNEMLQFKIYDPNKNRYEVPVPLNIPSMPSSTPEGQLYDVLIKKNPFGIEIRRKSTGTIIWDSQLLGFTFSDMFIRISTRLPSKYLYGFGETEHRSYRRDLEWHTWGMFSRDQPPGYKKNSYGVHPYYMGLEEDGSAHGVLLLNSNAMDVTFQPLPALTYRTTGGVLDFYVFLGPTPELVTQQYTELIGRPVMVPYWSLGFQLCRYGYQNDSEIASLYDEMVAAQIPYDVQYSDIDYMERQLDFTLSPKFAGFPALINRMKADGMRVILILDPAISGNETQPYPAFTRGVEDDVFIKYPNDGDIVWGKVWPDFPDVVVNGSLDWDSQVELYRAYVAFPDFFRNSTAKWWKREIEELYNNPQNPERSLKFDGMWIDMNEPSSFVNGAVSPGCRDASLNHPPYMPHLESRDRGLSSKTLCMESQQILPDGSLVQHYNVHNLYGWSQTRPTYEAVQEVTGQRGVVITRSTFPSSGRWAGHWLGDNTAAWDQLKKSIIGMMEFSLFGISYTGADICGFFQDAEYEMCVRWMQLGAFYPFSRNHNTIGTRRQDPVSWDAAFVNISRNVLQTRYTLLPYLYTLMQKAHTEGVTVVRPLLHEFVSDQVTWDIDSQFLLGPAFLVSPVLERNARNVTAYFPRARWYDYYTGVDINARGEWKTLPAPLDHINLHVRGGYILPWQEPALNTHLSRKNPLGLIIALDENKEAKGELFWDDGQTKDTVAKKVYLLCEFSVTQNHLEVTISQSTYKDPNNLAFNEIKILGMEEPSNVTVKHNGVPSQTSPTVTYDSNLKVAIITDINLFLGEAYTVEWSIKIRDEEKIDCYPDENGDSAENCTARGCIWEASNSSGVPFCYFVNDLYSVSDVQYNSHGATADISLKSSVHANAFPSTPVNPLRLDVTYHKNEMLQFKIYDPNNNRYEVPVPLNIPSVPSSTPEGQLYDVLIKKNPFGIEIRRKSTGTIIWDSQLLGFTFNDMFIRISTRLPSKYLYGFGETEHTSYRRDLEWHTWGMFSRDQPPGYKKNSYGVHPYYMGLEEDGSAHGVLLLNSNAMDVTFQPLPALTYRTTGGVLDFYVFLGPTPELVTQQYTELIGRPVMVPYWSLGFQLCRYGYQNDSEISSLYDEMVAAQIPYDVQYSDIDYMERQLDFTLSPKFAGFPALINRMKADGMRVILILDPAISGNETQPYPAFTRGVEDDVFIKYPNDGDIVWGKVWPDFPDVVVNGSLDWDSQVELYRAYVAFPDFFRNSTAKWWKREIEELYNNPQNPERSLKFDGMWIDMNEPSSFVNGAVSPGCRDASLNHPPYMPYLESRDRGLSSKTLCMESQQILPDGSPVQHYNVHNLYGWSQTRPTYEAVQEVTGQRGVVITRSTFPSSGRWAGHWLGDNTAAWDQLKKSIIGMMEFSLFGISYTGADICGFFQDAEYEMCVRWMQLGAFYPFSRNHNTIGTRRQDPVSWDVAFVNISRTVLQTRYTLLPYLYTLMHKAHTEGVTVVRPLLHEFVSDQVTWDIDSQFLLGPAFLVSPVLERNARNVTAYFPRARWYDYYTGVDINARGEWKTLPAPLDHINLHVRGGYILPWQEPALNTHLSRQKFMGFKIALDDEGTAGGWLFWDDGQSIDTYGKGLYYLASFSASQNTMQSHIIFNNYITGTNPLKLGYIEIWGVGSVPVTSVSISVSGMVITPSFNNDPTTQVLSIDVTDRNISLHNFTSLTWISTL
The target of experiment [9] is T1, Beta-mannosidase (Rattus norvegicus). Briefly: Concentration required to inhibit beta-mannosidase.
Experiment [10] deals with T2, Beta-galactosidase (Homo sapiens). Briefly: Concentration required to inhibit beta-galactosidase; IA means inactive.

Consider `O[C@H]1[C@H](O)[C@@H](O[C@H]2[C@H](O)[C@H](O)C=C[C@@H]2O)C=C[C@H]1O`, for which the Concentration in experiment [1] is 60 µM; in [3], 190 µM; in experiment [5], 850 µM. The Concentration entry in experiment [2], in [4] and in experiment [6] was “inactive” in each case.

`O[C@@H]1[C@@H](O)[C@@H](O)[C@H](O[C@H]2[C@@H](O)[C@H](O)[C@@H](O)[C@@H](O)[C@@H]2O)[C@@H](O)[C@H]1O`: the Concentration in [1] was determined as 800 µM; in [3], 600 µM. Moreover, the Concentration entry in experiment [7], in [2], in [4] and in [6] was “inactive” in each case.

`O[C@H]1[C@H](O)[C@@H](O[C@H]2C=C[C@@H](O)[C@@H](O)[C@@H]2O)C=C[C@H]1O`: the Concentration entry in [8], in experiment [4] and in [6] was “inactive” throughout. For the same molecule, the Concentration amounted to 250 µM in [3], 275 µM in experiment [5] and 1.5 mM in experiment [9].

`O[C@H]1[C@H](O)[C@@H](O)C=C[C@H]1O`: the Concentration entry in experiment [7], in [2], in experiment [8], in experiment [4] and in [6] was “inactive” each time. The Concentration in experiment [3] stood at 600 µM.

`O[C@H]1[C@H](O)[C@@H](O)[C@H](O)[C@@H](O)[C@H]1O`: the Concentration result in experiment [7], in experiment [10], in [2], in experiment [8], in experiment [4] and in experiment [6] was “inactive” in each case.
